Results on 6 molecules are retold here after ChEMBL document CHEMBL1136459, “New antibacterial tetrahydro-4(2H)-thiopyran and thiomorpholine S-oxide and S,S-dioxide phenyloxazolidinones” (Bioorg Med Chem Lett, 2003).

Assay [1] deals with Staphylococcus epidermidis. Description: In vitro antibacterial activity against Staphylococcus epidermidis strains UC12084, 30031, and CDC-CNS90 (SE); range is 32-64. Format: functional.
Assay [2] has as its system Moraxella catarrhalis. Description: In vitro antibacterial activity against Moraxella catarrhalis strains 30607 and 30603 (MC). Format: functional.
In the next assay the test system is Enterococcus faecium. Description: In vitro antibacterial activity against vancomycin-resistant Enterococcus faecium UC12712 (VRE).
Assay [3] deals with Staphylococcus aureus. Description: In vitro antibacterial activity against Staphylococcus aureus strains UC12673, UC9213, ATCC 29213, and UC9271 (SA). Format: functional.
Assay [4] has as its system Staphylococcus aureus. Description: In vitro antibacterial activity against linezolid-resistant Staphylococcus aureus ATCC 29213 (LRSA). Format: functional.
The subject of assay [5] is Haemophilus influenzae. Description: In vitro antibacterial activity against Haemophilia influenzae strains ATCC 30063 and ATCC 31517. Format: functional.
The test system of assay [6] is Staphylococcus epidermidis. Description: In vitro antibacterial activity against Staphylococcus epidermidis strains UC12084, 30031, and CDC-CNS90 (SE). Format: functional.
The subject of assay [7] is Haemophilus influenzae. Description: In vitro antibacterial activity against Haemophilia influenzae strains 30063 and ATCC 31517 (HI); range is 16-32. Format: functional.
Assay [8] concerns Staphylococcus aureus. Description: In vitro antibacterial activity against Staphylococcus aureus strains UC12673, UC9213, ATCC 29213, and UC9271 (SA); range is 8-16. Format: functional.
For assay [9], the system named is Staphylococcus epidermidis. Description: In vitro antibacterial activity against Staphylococcus epidermidis strains UC12084, 30031, and CDC-CNS90 (SE); range is 32->64. Format: functional.
Assay [10] deals with Staphylococcus epidermidis. Description: In vitro antibacterial activity against Staphylococcus epidermidis strains UC12084, 30031, and CDC-CNS90 (SE); range is 16-32. Format: functional.
In assay [11] the test system is Streptococcus pneumoniae. Description: In vitro antibacterial activity against Streptococcus pneumoniae strains ATCC 6305 and 31573 (SPN); range is 8-16.
Assay [12] concerns Staphylococcus aureus. Description: In vitro antibacterial activity against Staphylococcus aureus strains UC12673, UC9213, ATCC 29213, and UC9271 (SA); range is 32-64. Format: functional.
Assay [13] deals with Streptococcus pneumoniae. Description: In vitro antibacterial activity against Streptococcus pneumoniae strains ATCC 6305 and 31573 (SPN); range is 32-64. Format: functional.
Assay [14] concerns Moraxella catarrhalis. Description: In vitro antibacterial activity against Moraxella catarrhalis strains 30607 and 30603 (MC); range is 32-64. Format: functional.
Assay [15] deals with Staphylococcus aureus. Description: In vitro antibacterial activity against Staphylococcus aureus strains UC12673, UC9213, ATCC 29213, and UC9271 (SA); range is 8-32. Format: functional.

≈ marks a conversion by molar mass, not a printed value.

In the case of `COc1ccc(OC)c(C(=O)NC[C@H]2CN(c3ccc(N4CC[S+]([O-])CC4)c(F)c3)C(=O)O2)c1`, the MIC was 32 µg/mL (≈ 65.1 µM) in [1]; > 64 µg/mL against Moraxella catarrhalis [2]; > 64 µg/mL against Enterococcus faecium; ≥ 64 µg/mL in the assay on Staphylococcus aureus [3]; > 64 µg/mL against Staphylococcus aureus [4]; > 64 µg/mL against Haemophilus influenzae [5].

In the case of `O=C(CC(F)(F)F)NC[C@H]1CN(c2ccc(N3CCS(=O)(=O)CC3)c(F)c2)C(=O)O1`, the MIC in assay [6] was 4 µg/mL (≈ 8.82 µM); against Haemophilus influenzae [7], 16 µg/mL (≈ 35.3 µM); against Moraxella catarrhalis [2] it was 16 µg/mL (≈ 35.3 µM); in the assay with Staphylococcus aureus [8] it was 8 µg/mL (≈ 17.6 µM); with Enterococcus faecium, 4 µg/mL (≈ 8.82 µM); in the assay with Staphylococcus aureus [4], > 64 µg/mL.

`CC(C)CCC(=O)NC[C@H]1CN(c2ccc(N3CC[S+]([O-])CC3)c(F)c2)C(=O)O1`: the MIC against Moraxella catarrhalis [2] is > 64 µg/mL; with Enterococcus faecium it was > 64 µg/mL; against Staphylococcus aureus [3], ≥ 64 µg/mL; against Staphylococcus aureus [4], > 64 µg/mL; with Haemophilus influenzae [5], > 64 µg/mL; in assay [9], 32 µg/mL (≈ 75.2 µM).

Regarding `O=C(NC[C@H]1CN(c2ccc(N3CC[S+]([O-])CC3)c(F)c2)C(=O)O1)c1ccccc1`, the MIC in assay [10] is 16 µg/mL (≈ 37.1 µM); against Streptococcus pneumoniae [11] it was 8 µg/mL (≈ 18.5 µM); in the assay on Moraxella catarrhalis [2] it was > 64 µg/mL; in the assay with Enterococcus faecium it was 32 µg/mL (≈ 74.2 µM); in the assay on Staphylococcus aureus [4], > 64 µg/mL; with Staphylococcus aureus [12], 32 µg/mL (≈ 74.2 µM). Besides, the MIC in the assay on Haemophilus influenzae [5] was > 64 µg/mL.

For the molecule `NCCC(O)C(=O)NC[C@H]1CN(c2ccc(C3CCS(=O)(=O)CC3)c(F)c2)C(=O)O1` (some centres not stated), the MIC in assay [6] was > 64 µg/mL; against Moraxella catarrhalis [2], > 64 µg/mL; in the assay with Staphylococcus aureus [3] it was > 64 µg/mL; against Streptococcus pneumoniae [13], 32 µg/mL (≈ 72.2 µM); against Staphylococcus aureus [4], > 64 µg/mL; in the assay on Haemophilus influenzae [5], > 64 µg/mL.

As for `CC(=O)Oc1ccc(C(=O)NC[C@H]2CN(c3ccc(C4CC[S+]([O-])CC4)c(F)c3)C(=O)O2)cc1` (some centres not stated), the MIC in assay [6] turned out to be 4 µg/mL (≈ 8.19 µM); against Moraxella catarrhalis [14], 32 µg/mL (≈ 65.5 µM); against Enterococcus faecium, 0.06 µg/mL (≈ 0.123 µM); against Staphylococcus aureus [15] it was 8 µg/mL (≈ 16.4 µM); against Staphylococcus aureus [4], 64 µg/mL (≈ 131 µM); with Haemophilus influenzae [5], 64 µg/mL (≈ 131 µM).
